From patent publication US11478457B2, “Castration-resistant prostate cancer” (priority 2015, dated 2022) come the findings set out here.

Residue numbers refer to the chain shown, from its start.

One assay has as its target T1, T325D-UGDH (Homo sapiens, UniProt O60701, T325D).
T1 sequence (O60701 1-494 T325D): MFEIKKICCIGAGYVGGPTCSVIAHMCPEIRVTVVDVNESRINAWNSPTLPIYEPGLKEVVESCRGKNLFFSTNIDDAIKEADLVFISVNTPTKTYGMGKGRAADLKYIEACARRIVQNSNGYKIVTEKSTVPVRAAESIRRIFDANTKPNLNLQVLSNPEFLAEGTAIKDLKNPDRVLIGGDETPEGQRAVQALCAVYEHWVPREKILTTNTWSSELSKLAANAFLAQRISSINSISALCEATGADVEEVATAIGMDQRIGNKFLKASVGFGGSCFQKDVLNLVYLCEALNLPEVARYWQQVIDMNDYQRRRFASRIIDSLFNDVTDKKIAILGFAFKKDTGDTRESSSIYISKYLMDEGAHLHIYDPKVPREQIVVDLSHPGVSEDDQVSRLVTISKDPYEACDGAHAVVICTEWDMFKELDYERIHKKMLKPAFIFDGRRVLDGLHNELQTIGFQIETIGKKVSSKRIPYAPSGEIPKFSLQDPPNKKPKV
Briefly: UGDH kinetic characterization, T325D. The assay is classed as biochemical. As to conditions: substrate/cofactor varied. From the text: (§1) T325A and T325D are engineered inducible hexameric and obligate dimeric UGDH species, respectively.

The target of assay [1] is T2, WT UGDH (Homo sapiens, UniProt O60701).
T2 sequence (O60701 1-494): T1 sequence (O60701 1-494 T325D) with D325T
Put plainly: UGDH kinetic characterization, WT. The assay is classed as biochemical. As to conditions: substrate/cofactor varied.
Text: as §1

Another assay concerns the target T3, T325A-UGDH (Homo sapiens, UniProt O60701, T325A).
T3 sequence (O60701 1-494 T325A): T1 sequence (O60701 1-494 T325D) with D325A
Briefly: UGDH kinetic characterization, T325A. As to conditions: substrate/cofactor varied. The assay is classed as biochemical.
Text: as §1

The target in assay [2] is T4, T325A (inducible hexamer) UGDH (Homo sapiens, UniProt O60701, T325A).
T4 sequence (O60701 1-494 T325A): T1 sequence (O60701 1-494 T325D) with D325A
Briefly: Thermal stability of UGDH, T325A. The assay is classed as binding. The procedure: (§2) FIG. 8A-8D show UDP-xylose effects on the thermal stability of WT, T325A (inducible hexamer), and T325D (obligate dimer) UGDH. […] Statistical analyses were performed using a two-way ANOVA with Bonferroni post tests on PRISM.

In the next assay the target is T5, UGDH T325A (Homo sapiens, UniProt O60701, T325A).
T5 sequence (O60701 1-494 T325A): T1 sequence (O60701 1-494 T325D) with D325A
Put plainly: Limited trypsin proteolysis of UGDH, T325A. The protocol: (§3) UDP-xylose [20 μM] protected T325A apo from trypsin digestion (red star) and only slightly affected the other forms. […] Each assay contained 10 μg of enzyme, 10 ng Trypsin, and combinations of substrate, cofactor, and UDP-xylose, which was incubated 2.5 h, followed by SDS-PAGE.
(§4) The same procedures from above (see e.g., Example 7) were followed.

For assay [3], the target named is T6, T325D (obligate dimer) UGDH (Homo sapiens, UniProt O60701, T325D).
T6 sequence (O60701 1-494 T325D): T1 sequence (O60701 1-494 T325D)
Put plainly: Thermal stability of UGDH, T325D. The assay is classed as binding. The protocol:
as §2

Another assay addresses T7, UGDH T325D (Homo sapiens, UniProt O60701, T325D).
T7 sequence (O60701 1-494 T325D): T1 sequence (O60701 1-494 T325D)
Briefly: Limited trypsin proteolysis of UGDH, T325D. As to conditions: 20 μM, 2.5 h. The protocol:
as §3, §4

Assay [4] has as its target T2, WT UGDH. Briefly: UGDH inhibition assay (IC50, Ki), WT enzyme. The format is biochemical. As to conditions: for Mode of inhibition: UGDH; for IC50: 50 μM UDP-glc and 1 mM NAD+. The procedure:
(§5) Ki values were determined by varying [UDP-glc] and holding NAD+ at saturating concentrations.
(§6) IC50 experiments were performed as described above (see e.g., Example 2).

The target of assay [5] is T2, WT UGDH. Put plainly: Thermal stability of UGDH, WT. The assay is classed as binding. The protocol: as §2
Assay [6] deals with T8, T325D-UGDH (obligate dimer) (Homo sapiens, UniProt O60701, T325D).
T8 sequence (O60701 1-494 T325D): T1 sequence (O60701 1-494 T325D)
Briefly: UGDH inhibition assay (IC50, Ki), T325D mutant. The format is biochemical. As to conditions: required 4 μM T325D instead of 1 μM. The procedure: as §5, §6

Assay [7] concerns the target T2, WT UGDH. Briefly: Limited trypsin proteolysis of UGDH, WT. As to conditions: WT ternary complexes; 500 μM. The protocol:
as §3, §4

Assay [8] addresses T9, T325A-UGDH (inducible hexamer) (Homo sapiens, UniProt O60701, T325A).
T9 sequence (O60701 1-494 T325A): T1 sequence (O60701 1-494 T325D) with D325A
Put plainly: UGDH inhibition assay (IC50, Ki), T325A mutant. The format is biochemical. The procedure:
as §5, §6

The target of assay [9] is T10, UDP-glucose dehydrogenase (Homo sapiens, UniProt O60701).
T10 sequence (O60701 1-494): T1 sequence (O60701 1-494 T325D) with D325T
Put plainly: High throughput screening for inhibitors of UDP-glucose dehydrogenase (NADH fluorescence). The format is biochemical. As to conditions: compound plates 20 μL/well of 25 μg/mL compound in 2.5% DMSO; relative to DMSO negative and UDP-xylose positive controls; higher POC = more inhibitory; read-out: POC (Percent of Controls).

As to `NC(=O)c1ccc[n+]([C@@H]2O[C@H](COP(=O)([O-])OP(=O)(O)OC[C@H]3O[C@@H](n4cnc5c(N)ncnc54)[C@H](O)[C@@H]3O)[C@@H](O)[C@H]2O)c1` [NAD+], the Km – broadly, the concentration of substrate that gives half-maximal velocity – turned out to be 1200 ± 290 µM at T325D-UGDH, 1030 ± 215 µM on WT UGDH [1] and 1680 ± 455 µM on T325A-UGDH. The VMAX on T325D-UGDH was found to be 38.0 ± 2.5 nmol/min/mg; on WT UGDH [1], 206.1 ± 13.0 nmol/min/mg; on T325A-UGDH, 103 ± 8.5 nmol/min/mg.
As to `O=c1ccn([C@@H]2O[C@H](COP(=O)(O)OP(=O)(O)O[C@H]3OC[C@@H](O)[C@H](O)[C@H]3O)[C@@H](O)[C@H]2O)c(=O)[nH]1` [UDP-xylose, reference compound], the “Effect on thermal stability” value in assay [2] (NAD+ complex with T325A) is reported as “significantly increase thermal stability”; in assay [2] (apo T325A), “increased the thermal stability”; in assay [3] (NAD+ complex with T325D), “significantly increase thermal stability”; at WT UGDH [5] (NAD+ complex with WT), “significantly increase thermal stability”; at WT UGDH [5] (apo WT) it was “increased the thermal stability”. For the same compound, the “Effect on trypsin digestion” value on UGDH T325A (T325A apo, 20 μM, 2.5 h) is “protected”; at UGDH T325D (T325D apo and UDP-glc forms) it was “did not affect”; at UGDH T325D (T325D complexes with NAD+, NADH, and UDP-glcA), “significantly protected”. Also, the Mode of inhibition entry on WT UGDH [4] is given as “competitive inhibitor”. On WT UGDH [4] (WT-UGDH), inhibition was half-maximal at 0.58 ± 0.09 µM (IC50). On WT UGDH [4] (WT-UGDH, varying [UDP-glc], NAD+ at saturating concentrations), the affinity corresponds to a Ki of 2.67 ± 0.54 µM.
On to `O=C(O)CCc1ccc(-c2cccs2)o1` [Compound 31, 3-[5-(2-thienyl)-2-furyl]propanoic acid], for which the IC50 (usually the midpoint of a concentration-inhibition curve) in assay [6] amounted to 799.4 ± 0.05 µM; in assay [8] it was 86.98 ± 0.03 µM; against WT UGDH [4] (WT-UGDH), 146.8 ± 1.05 µM. Further, the “Effect on thermal stability” value in assay [2] (T325A, all binary complexes except UDP-glucose) is listed as “decreasing thermal stability”; in assay [3] (T325D, all binary complexes except UDP-glucose), “decreasing thermal stability”. For the same compound, the “Effect on trypsin digestion” value at UGDH T325A (T325A ternary complexes, 500 μM) is on record as “significantly affects”; at WT UGDH [7], “significantly affects”. Also, the Mode of inhibition result at WT UGDH [4] was “allosteric inhibitor”.
With `CCC(C)(O)c1nnn(-c2nonc2N)c1C(C)(O)CC` (stereo not drawn) [Compound 1, 2,2′-[1-(4-amino-1,2,5-oxadiazol-3-yl)-1H-1,2,3-triazole-4,5-diyl]di(2-butanol)], the “Effect on thermal stability” value (in assay [2] (UDP-glcA complex with T325A); in [3] (UDP-glcA complex with T325D); on WT UGDH [5] (UDP-glcA complex with WT)) was “decrease thermal stability” each time. Also, at UGDH T325A (T325A with UDP-glcA and UDP-glcA with NADH, 750 μM), the “Effect on trypsin digestion” value is reported as “significantly affects”. The affinity in assay [8] (varying [UDP-glc], NAD+ at saturating concentrations), expressed as Ki, was 421 ± 118 µM. The midpoint of inhibition at WT UGDH [4] (WT-UGDH), the IC50, lay at 261 ± 6.2 µM.
For `O=C(O)c1cc(O)c(O)c(O)c1`, the inhibition at 25 µg/mL (stock) in [9] came out at 71%.
On to `COc1ccc(NS(=O)(=O)c2cc(C(=O)Nc3ccc(C(=O)O)cc3)ccc2C)cc1`, for which the inhibition at 25 µg/mL (stock) in assay [9] was found to be 61%.
As for `O=C(O)CCc1ccc(-c2cccs2)o1` [drawing 227], in assay [9], the inhibition at 25 µg/mL (stock) was determined as 87%.
`O=C(Nc1nc2c(s1)CCCC2)c1cccs1`: the inhibition at 25 µg/mL (stock) in assay [9] was 45%.
For the compound `N#CSC(C#N)Cc1cccc(Cl)c1` (stereo not drawn), the inhibition at 25 µg/mL (stock) in assay [9] was found to be 74%.
Same read-out and setting: with `Nc1ccc(S(=O)(=O)c2ccc(N)c(N)c2)cc1N` the figure was 50%; with `O=c1c(O)c(-c2cc(O)c(O)c(O)c2)oc2cc(O)cc(O)c12`, 91%.
In the case of `O=C(Nc1ccc2c(c1)OCCO2)c1cc2ccccc2o1`, the inhibition at 25 µg/mL (stock) in [9] came to 103%.
On the same count and under the same terms, in the case of `O=[N+]([O-])c1ccc2[nH]c(-c3ccco3)nc2c1` it was 46%.
Take `CCCCC(NC(=O)c1cccc(Br)c1)C(=O)O` (stereo not drawn): the inhibition at 25 µg/mL (stock) in [9] is 103%.
Still for that read-out and setting: with `O=C(O)COc1cccc(/C=C/[N+](=O)[O-])c1` the figure was 67%.
Take `Nc1ncc(C2=C(Cl)C(O)C(Cl)=C(Cl)C2O)s1` (stereo not drawn): in assay [9], the inhibition at 25 µg/mL (stock) turned out to be 71%.
Regarding `CC1(C)CC(=O)C2=C(C1)OC(N)=C(C#N)C21CCCC1`, in assay [9], the inhibition at 25 µg/mL (stock) was determined as 126%.
In the case of `CCSc1sc(SC#N)cc1SC#N`, in assay [9], the inhibition at 25 µg/mL (stock) was 83%.
As to `NC(=O)c1c(NC(=O)C2CCCO2)sc2c1CCCCCC2` (stereo not drawn), the inhibition at 25 µg/mL (stock) in assay [9] worked out at 74%.
Still for that read-out and setting: with `CC/C(=C/c1ccc(O)c(OC)c1)[N+](=O)[O-]` the figure was 63%; with `Cc1ccccc1-c1nnc(N)s1`, 51%.
